Here are results for three molecules from ChEMBL document CHEMBL3860091, “Synthesis and activity of newly designed aroxyalkyl or aroxyethoxyethyl derivatives of piperazine on the cardiovascular and the central nervous systems” (Bioorg Med Chem Lett, 2016).

The target of test [1] is T1, Adrenergic receptor alpha-1 (Rattus norvegicus, UniProt P15823+P23944+P43140).
T1 sequence (P15823 whole entry): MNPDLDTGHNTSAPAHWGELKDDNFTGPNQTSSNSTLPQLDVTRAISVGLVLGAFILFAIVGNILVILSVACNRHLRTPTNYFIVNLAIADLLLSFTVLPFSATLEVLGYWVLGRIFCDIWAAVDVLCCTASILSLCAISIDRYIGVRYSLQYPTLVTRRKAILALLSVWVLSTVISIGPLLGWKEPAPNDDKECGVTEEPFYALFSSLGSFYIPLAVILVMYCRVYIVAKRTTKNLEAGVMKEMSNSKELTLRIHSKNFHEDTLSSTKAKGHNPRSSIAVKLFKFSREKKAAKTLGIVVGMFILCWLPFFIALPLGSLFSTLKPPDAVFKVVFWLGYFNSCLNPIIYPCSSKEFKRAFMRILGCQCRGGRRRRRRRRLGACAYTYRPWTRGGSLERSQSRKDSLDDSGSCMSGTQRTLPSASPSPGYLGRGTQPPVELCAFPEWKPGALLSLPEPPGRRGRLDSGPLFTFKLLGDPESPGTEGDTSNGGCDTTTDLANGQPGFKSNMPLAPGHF
T1 sequence (P23944 whole entry): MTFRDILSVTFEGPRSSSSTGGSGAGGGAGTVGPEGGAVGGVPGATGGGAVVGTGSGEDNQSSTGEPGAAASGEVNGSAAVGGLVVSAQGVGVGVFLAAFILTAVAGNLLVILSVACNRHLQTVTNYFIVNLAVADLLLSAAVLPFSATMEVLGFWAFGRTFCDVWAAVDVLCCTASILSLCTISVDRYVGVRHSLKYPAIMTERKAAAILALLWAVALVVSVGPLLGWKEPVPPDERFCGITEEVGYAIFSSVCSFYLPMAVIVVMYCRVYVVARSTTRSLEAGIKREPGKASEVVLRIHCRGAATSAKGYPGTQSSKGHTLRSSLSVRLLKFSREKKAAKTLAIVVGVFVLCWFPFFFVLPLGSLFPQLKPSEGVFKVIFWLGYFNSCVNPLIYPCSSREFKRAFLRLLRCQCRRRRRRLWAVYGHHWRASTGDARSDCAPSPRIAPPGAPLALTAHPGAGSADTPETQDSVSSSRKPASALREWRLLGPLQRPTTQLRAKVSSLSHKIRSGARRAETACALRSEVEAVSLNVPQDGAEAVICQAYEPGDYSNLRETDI
T1 sequence (P43140 whole entry): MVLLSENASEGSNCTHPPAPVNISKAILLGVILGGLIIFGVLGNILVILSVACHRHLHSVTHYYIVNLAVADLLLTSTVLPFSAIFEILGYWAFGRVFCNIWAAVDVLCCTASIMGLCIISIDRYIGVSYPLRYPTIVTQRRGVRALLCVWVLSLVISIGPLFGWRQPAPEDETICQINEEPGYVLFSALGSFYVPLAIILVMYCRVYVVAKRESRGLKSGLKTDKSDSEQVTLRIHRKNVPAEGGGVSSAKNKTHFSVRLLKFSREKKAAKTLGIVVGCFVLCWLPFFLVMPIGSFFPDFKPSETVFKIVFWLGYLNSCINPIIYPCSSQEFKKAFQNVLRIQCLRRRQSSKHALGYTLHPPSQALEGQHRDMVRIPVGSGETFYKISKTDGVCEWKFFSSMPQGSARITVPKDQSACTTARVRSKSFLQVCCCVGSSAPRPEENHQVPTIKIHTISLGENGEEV
Description: Displacement of [3H]prazosin from alpha1 adrenergic receptor in rat brain cerebral cortex. Type of test: tissue-based. In general terms: In a radioligand displacement assay an active substance lowers the binding of a labelled ligand.

Test [2] is filed under the species Rattus norvegicus. Description: Selectivity ratio of Ki for rat brain cerebral cortex alpha2 adrenergic receptor to Ki for rat brain cerebral cortex alpha1 adrenergic receptor.
The target of test [3] is T1, Adrenergic receptor alpha-1. Description: Antagonist activity at alpha1 adrenergic receptor in rat aorta assessed as inhibition of phenylephrine-induced aortic contraction.
Test [4] can be described thus: Antidepressant-like activity in mouse assessed as immobility time at 5 mg/kg, ip by tail suspension test (reference value: 154.2 +/- 10.2 sec). Type of test: functional, organism-based.
A short description of test [5]: Antidepressant-like activity in mouse assessed as immobility time at 10 mg/kg, ip by tail suspension test (reference value: 154.2 +/- 10.2 sec). Type of test: functional, organism-based.

In general, Ki refers to a dissociation constant, usually derived from enzyme kinetics or from competition with a known ligand. In general, pA2 refers to the negative logarithm of the molar antagonist concentration that doubles the agonist concentration needed for the same response. As to `COc1ccccc1N1CCN(CCCOc2cccc(C)c2C)CC1.Cl`, the Ki in test [1] is 2.8 nM. Further, in test [2], the Ratio Ki is 13.3. Moreover, the pA2 in test [3] came out at 8.534.

On to `COc1ccccc1N1CCN(CCCOc2c(C)cccc2C)CC1.Cl`, for which, in test [1], the Ki was 2.4 nM. Moreover, the Ratio Ki in test [2] is 142. Further, the pA2 in test [3] is 8.807.

`CN(C)CCCN1c2ccccc2CCc2ccccc21`: the TIME in test [4] was 0.0363 h; in test [5] it was 0.0283 h.
